Test results from ChEMBL document CHEMBL1145191, “NMR studies reveal structural differences between the gallium and yttrium complexes of DOTA-D-Phe1-Tyr3-octreotide” (J Med Chem, 2005).

Assay: Half-life time of the compound
Assay type: ADME

GaIII-DOTATOC
T1/2: 1.13 h
